One data set concerns Homo sapiens. The data set is described as follows: (§1) Pharmacokinetic parameters for Letrozole evaluated following single oral administration of Letrozole tablets. As to conditions: in vivo. Type of data set: ADME, organism-based. Details: dose 2.5 mg, route oral.
The nature of data set [1]: as §1. Further details: dose 2.5 mg, route oral. Type of data set: ADME, organism-based. As to conditions: human, in vivo, 2.5 mg.

For `N#Cc1ccc(C(c2ccc(C#N)cc2)n2cncn2)cc1` [LETROZOLE], the Vd with Homo sapiens amounted to 1.87 L/kg. In data set [1], the CL/F worked out at 0.58 mL/min/kg, the highest level (Cmax) was 115 nM and the Tmax amounted to 1 h. Moreover, the dose excreted in data set [1] (read-out: Excretion) was found to be 3.9%.

A word on the CL/F: it is clearance divided by bioavailability, as obtained after extravascular dosing. A word on the Cmax: it is the maximum level reached in the sampled fluid or tissue. The Tmax is the time from dosing to the highest level.

(Values after ChEMBL document CHEMBL3832547, “Goodman and Gilman Ed. 12 | The Pharmaceutical Basis of Therapeutics| Table AII-I: Pharmacokinetic Data” (2011).)
